We go through five compounds from PubChem BioAssay AID1745844 (Carcinogenic Potency Database (CPDB), 2022).

Molecules are shown by their SMILES. Calls of active or inactive are those of the source. How the calls were made is not given here.

The series deals with rodent lifetime carcinogenesis bioassay, tumor incidence TD50. Nature of the series: carcinogenic potency in animals, long-term in vivo studies, CPDB compilation (AID 1745844).

On to `ClC1C2(Cl)C3C4C5OC5C5C4C1(Cl)C(Cl)(C53)C2(Cl)Cl` (centres undefined), for which the TD50 by setting is: (mouse, strain B6C3F1, females, in feed, site: any site (literature study), lesion: several types, types named in the paper, dosed 80 weeks, study length 92 weeks) 0.743 mg/kg/day (inactive); (mouse, strain B6C3F1, females, in feed, site: liver, lesion: hepatocellular adenoma + hepatocellular carcinoma + neoplastic nodule, dosed 80 weeks, study length 92 weeks) 2.53 mg/kg/day; (mouse, strain B6C3F1, females, in feed, site: lung, lesion: alveolar/bronchiolar adenoma + alveolar/bronchiolar carcinoma, dosed 80 weeks, study length 92 weeks) 6.78 mg/kg/day; (mouse, strain B6C3F1, males, in feed, site: any site (literature study), lesion: several types, types named in the paper, dosed 80 weeks, study length 93 weeks) 0.494 mg/kg/day (inactive); (mouse, strain B6C3F1, males, in feed, site: liver, lesion: hepatocellular adenoma + hepatocellular carcinoma + neoplastic nodule, dosed 80 weeks, study length 93 weeks) 1.96 mg/kg/day; (mouse, strain B6C3F1, males, in feed, site: lung, lesion: alveolar/bronchiolar adenoma + alveolar/bronchiolar carcinoma, dosed 80 weeks, study length 93 weeks) 0.465 mg/kg/day. Moreover, the TD50 was 0.327 mg/kg/day (rat, strain Osborne-Mendel, females, in feed, site: any site (literature study), lesion: several types, types named in the paper, dosed 69 weeks, study length 111 weeks); 0.612 mg/kg/day (inactive) (rat, strain Osborne-Mendel, females, in feed, site: mammary gland, lesion: adenoma + fibroadenoma, dosed 69 weeks, study length 111 weeks); 2.89 mg/kg/day (inactive) (rat, strain Osborne-Mendel, males, in feed, site: all sites, lesion: hemangioma, dosed 80 weeks, study length 109 weeks); 7.72 mg/kg/day (rat, strain Osborne-Mendel, males, in feed, site: liver, lesion: hepatocellular adenoma + hepatocellular carcinoma + neoplastic nodule, dosed 80 weeks, study length 111 weeks). In addition, for the setting “rat, strain Osborne-Mendel, males, in feed, site: any site (literature study), lesion: several types, types named in the paper, dosed 80 weeks, study length 111 weeks”, the carcinogen call was “negative (inactive)”.

For `CC1=C(CC(=O)O)c2cc(F)ccc2/C1=C\c1ccc(S(C)(=O)=O)cc1`, the carcinogen call (rat, strain Fischer 344, males, in feed, site: colon, lesion: one or several types, types not named, dosed 53 weeks, study length 53 weeks) is “negative (inactive)”.

On to `CC#N`, for which the carcinogen call (mouse, strain B6C3F1, females, inhaled, site: any site (literature study), lesion: several types, types named in the paper, dosed 103 weeks, study length 105 weeks) was “negative (inactive)” and the carcinogen call (mouse, strain B6C3F1, males, inhaled, site: any site (literature study), lesion: several types, types named in the paper, dosed 103 weeks, study length 104 weeks) is “negative (inactive)”. For the same compound, the TD50 is 90.4 mg/kg/day (mouse, strain B6C3F1, males, inhaled, site: liver, lesion: hepatocellular adenoma + hepatoblastoma + hepatocellular carcinoma, dosed 103 weeks, study length 104 weeks); 318 mg/kg/day (mouse, strain B6C3F1, males, inhaled, site: lung, lesion: alveolar/bronchiolar adenoma + alveolar/bronchiolar carcinoma, dosed 103 weeks, study length 104 weeks); 11.5 mg/kg/day (inactive) (rat, strain Fischer 344, females, inhaled, site: mammary gland, lesion: carcinoma + fibroadenoma, dosed 103 weeks, study length 104 weeks); 16.9 mg/kg/day (rat, strain Fischer 344, males, inhaled, site: adrenal medulla, lesion: pheochromocytoma benign, bilateral + pheochromocytoma, benign, dosed 103 weeks, study length 104 weeks); 14.8 mg/kg/day (rat, strain Fischer 344, males, inhaled, site: adrenal medulla, lesion: pheochromocytoma benign, bilateral + pheochromocytoma, malignant + pheochromocytoma, benign, dosed 103 weeks, study length 104 weeks); 168 mg/kg/day (rat, strain Fischer 344, males, inhaled, site: liver, lesion: hepatocellular adenoma + hepatoblastoma + hepatocellular carcinoma, dosed 103 weeks, study length 104 weeks). The TD50 reads like this: (rat, strain Fischer 344, males, inhaled, site: liver, lesion: hepatocellular adenoma + hepatocellular carcinoma, dosed 103 weeks, study length 104 weeks) 168 mg/kg/day; (rat, strain Fischer 344, males, inhaled, site: liver, lesion: hepatocellular adenoma, dosed 103 weeks, study length 104 weeks) 156 mg/kg/day; (rat, strain Fischer 344, males, inhaled, site: liver, lesion: hepatocellular carcinoma, dosed 103 weeks, study length 104 weeks) 398 mg/kg/day; (rat, strain Fischer 344, males, inhaled, site: skin, lesion: basal-cell adenoma + keratoacanthoma + trichoepithelioma, dosed 103 weeks, study length 104 weeks) 81.6 mg/kg/day; (rat, strain Fischer 344, males, inhaled, site: skin, lesion: keratoacanthoma, dosed 103 weeks, study length 104 weeks) 127 mg/kg/day.

As for `CN(N=O)C(N)=O`, the TD50 by setting is: (monkey, strain Cynomolgus [Macaca fascicularis], both sexes, in feed, site: any site (literature study), lesion: benign tumor, dosed 928 weeks, study length 1135 weeks) 19.1 mg/kg/day; (monkey, strain Cynomolgus [Macaca fascicularis], both sexes, in feed, site: any site (literature study), lesion: malignant tumor, dosed 928 weeks, study length 1135 weeks) 4 mg/kg/day; (monkey, strain Cynomolgus [Macaca fascicularis], both sexes, in feed, site: any site (literature study), lesion: several types, types named in the paper, dosed 928 weeks, study length 1135 weeks) 2.64 mg/kg/day; (monkey, strain Cynomolgus [Macaca fascicularis], both sexes, in feed, site: colon, lesion: leiomyosarcoma, dosed 928 weeks, study length 1135 weeks) 34.5 mg/kg/day; (monkey, strain Cynomolgus [Macaca fascicularis], both sexes, in feed, site: esophagus, lesion: several types, types named in the paper, dosed 928 weeks, study length 1135 weeks) 7.71 mg/kg/day; (monkey, strain Cynomolgus [Macaca fascicularis], both sexes, in feed, site: esophagus, lesion: squamous-cell carcinoma, dosed 928 weeks, study length 1135 weeks) 10.5 mg/kg/day. The TD50 is, setting by setting: (monkey, strain Cynomolgus [Macaca fascicularis], both sexes, in feed, site: esophagus, lesion: squamous-cell papilloma, dosed 928 weeks, study length 1135 weeks) 29.2 mg/kg/day; (monkey, strain Cynomolgus [Macaca fascicularis], both sexes, in feed, site: heart, lesion: rhabdomyoblastoma, dosed 928 weeks, study length 1135 weeks) 66.3 mg/kg/day; (monkey, strain Cynomolgus [Macaca fascicularis], both sexes, in feed, site: oral cavity, lesion: several types, types named in the paper, dosed 928 weeks, study length 1135 weeks) 2.65 mg/kg/day; (monkey, strain Cynomolgus [Macaca fascicularis], both sexes, in feed, site: palate, soft, lesion: squamous-cell carcinoma, dosed 928 weeks, study length 1135 weeks) 7.95 mg/kg/day; (monkey, strain Cynomolgus [Macaca fascicularis], both sexes, in feed, site: pharynx, lesion: squamous-cell carcinoma, dosed 928 weeks, study length 1135 weeks) 82.2 mg/kg/day; (monkey, strain Cynomolgus [Macaca fascicularis], both sexes, in feed, site: skull, lesion: rhabdomyosarcoma, dosed 928 weeks, study length 1135 weeks) 23.9 mg/kg/day. For the same compound, the TD50 runs as follows: (monkey, strain Cynomolgus [Macaca fascicularis], both sexes, in feed, site: stomach, lesion: adenocarcinoma, dosed 928 weeks, study length 1135 weeks) 66.3 mg/kg/day; (monkey, strain Cynomolgus [Macaca fascicularis], both sexes, in feed, site: tongue, lesion: squamous-cell papilloma, dosed 928 weeks, study length 1135 weeks) 7.95 mg/kg/day; (monkey, strain Cynomolgus [Macaca fascicularis], both sexes, in feed, site: upper gastrointestinal tract, lesion: squamous-cell carcinoma, dosed 928 weeks, study length 1135 weeks) 4.52 mg/kg/day; (monkey, strain Rhesus [Macaca mulatta], both sexes, in feed, site: any site (literature study), lesion: malignant tumor, dosed 928 weeks, study length 1139 weeks) 6.75 mg/kg/day; (monkey, strain Rhesus [Macaca mulatta], both sexes, in feed, site: cheek pouch, lesion: squamous-cell carcinoma, dosed 928 weeks, study length 1139 weeks) 95.6 mg/kg/day; (monkey, strain Rhesus [Macaca mulatta], both sexes, in feed, site: epiglottis, lesion: squamous-cell carcinoma, dosed 928 weeks, study length 1139 weeks) 42.8 mg/kg/day. In addition, the TD50 runs as follows: (monkey, strain Rhesus [Macaca mulatta], both sexes, in feed, site: esophagus, lesion: squamous-cell carcinoma, dosed 928 weeks, study length 1139 weeks) 8.2 mg/kg/day; (monkey, strain Rhesus [Macaca mulatta], both sexes, in feed, site: gingiva, lesion: squamous-cell carcinoma, dosed 928 weeks, study length 1139 weeks) 62.6 mg/kg/day; (monkey, strain Rhesus [Macaca mulatta], both sexes, in feed, site: larynx, lesion: squamous-cell carcinoma, dosed 928 weeks, study length 1139 weeks) 95.6 mg/kg/day; (monkey, strain Rhesus [Macaca mulatta], both sexes, in feed, site: oral cavity, lesion: several types, types named in the paper, dosed 928 weeks, study length 1139 weeks) 15.7 mg/kg/day; (monkey, strain Rhesus [Macaca mulatta], both sexes, in feed, site: palate, soft, lesion: squamous-cell carcinoma, dosed 928 weeks, study length 1139 weeks) 102 mg/kg/day; (monkey, strain Rhesus [Macaca mulatta], both sexes, in feed, site: pharynx, lesion: squamous-cell carcinoma, dosed 928 weeks, study length 1139 weeks) 44.2 mg/kg/day. For the same compound, the TD50 was 42.8 mg/kg/day (monkey, strain Rhesus [Macaca mulatta], both sexes, in feed, site: stomach, lesion: adenocarcinoma, dosed 928 weeks, study length 1139 weeks); 72.9 mg/kg/day (monkey, strain Rhesus [Macaca mulatta], both sexes, in feed, site: tongue, lesion: squamous-cell carcinoma, dosed 928 weeks, study length 1139 weeks); 7.18 mg/kg/day (monkey, strain Rhesus [Macaca mulatta], both sexes, in feed, site: upper gastrointestinal tract, lesion: squamous-cell carcinoma, dosed 928 weeks, study length 1139 weeks); 2.53 mg/kg/day (mouse, strain C3H (MTV+), males, in drinking water, site: liver, lesion: neoplastic nodule, dosed 30 weeks, study length 54 weeks); 0.794 mg/kg/day (mouse, strain C3H (MTV+), males, in drinking water, site: lung, lesion: adenoma, dosed 30 weeks, study length 54 weeks); 1.23 mg/kg/day (mouse, strain C3H (MTV+), males, in drinking water, site: spleen, lesion: hemangioendothelial sarcoma, dosed 30 weeks, study length 54 weeks). For the same compound, the TD50 is, setting by setting: (mouse, strain C3H (MTV+), males, in drinking water, site: stomach, glandular, lesion: adenocarcinoma, dosed 30 weeks, study length 54 weeks) 6.19 mg/kg/day; (rat, strain Fischer 344, males, by gavage, site: forestomach, lesion: one or several types, types not named, dosed 28 weeks, study length 104 weeks) 0.0927 mg/kg/day; (rat, strain Fischer 344, males, by gavage, site: liver, lesion: one or several types, types not named, dosed 28 weeks, study length 104 weeks) 11.6 mg/kg/day; (rat, strain Fischer 344, males, by gavage, site: lung, lesion: several types, types named in the paper, dosed 28 weeks, study length 104 weeks) 0.357 mg/kg/day; (rat, strain Fischer 344, males, by gavage, site: nervous system, lesion: several types, types named in the paper, dosed 28 weeks, study length 104 weeks) 2.03 mg/kg/day.

Consider `O=[N+]([O-])c1ccc2ccc3cccc4ccc1c2c34`, for which the TD50 (rat, strain Fischer 344/Jcl, females, by gavage, site: all sites, lesion: mononuclear-cell leukemia, dosed 55 weeks, study length 104 weeks) was 4.33 mg/kg/day; the TD50 (rat, strain Fischer 344/Jcl, females, by gavage, site: clitoral gland, lesion: adenocarcinoma, dosed 55 weeks, study length 104 weeks) amounted to 157 mg/kg/day; the TD50 (rat, strain Fischer 344/Jcl, females, by gavage, site: clitoral gland, lesion: several types, types named in the paper, dosed 55 weeks, study length 104 weeks) is 6.16 mg/kg/day; the TD50 (rat, strain Fischer 344/Jcl, females, by gavage, site: clitoral gland, lesion: squamous-cell carcinoma, dosed 55 weeks, study length 104 weeks) is 6.08 mg/kg/day; the TD50 (rat, strain Fischer 344/Jcl, females, by gavage, site: mammary gland, lesion: adenocarcinoma, dosed 55 weeks, study length 104 weeks) was 4.82 mg/kg/day; the TD50 (rat, strain Fischer 344/Jcl, females, by gavage, site: mammary gland, lesion: adenoma, dosed 55 weeks, study length 104 weeks) was found to be 51.4 mg/kg/day. In addition, the TD50 reads like this: (rat, strain Fischer 344/Jcl, females, by gavage, site: mammary gland, lesion: fibroadenoma, dosed 55 weeks, study length 104 weeks) 39.6 mg/kg/day; (rat, strain Fischer 344/Jcl, females, by gavage, site: mammary gland, lesion: several types, types named in the paper, dosed 55 weeks, study length 104 weeks) 3.33 mg/kg/day; (rat, strain Fischer 344/Jcl, females, by gavage, site: uterus, lesion: endometrial stromal polyp, dosed 55 weeks, study length 104 weeks) 13.1 mg/kg/day.

What is called TD50 is the dose at which the toxic effect under study appears in half of the subjects.
